Results taken from patent US10765657B2, “Selamectin for treatment of sea lice infestations” (priority 2013, dated 2020).

Columns and labels:
naïve sea lice = test: Prophylactic efficacy of medicated feed against sea lice challenge in fish; type: in vivo
Method: Experimental diets containing selamectin were administered to 15×2 m diameter tanks of 75 fish by voluntary feeding from Day 0 to Day 6. […] The study evaluated the three concentrations of test material in comparison to a negative control (placebo) and a positive control. Each group was run as triplicate tanks. In each group, sea lice were evaluated using a representative sample of 5 fish per tank on Day −1 (pre-treatment) and 10 fish per tank on days 10 and 30 (4 and 24 days post-treatment).
The prophylactic effect of treatment was determined by removing lice and using further sea lice challenges at intervals. All adult lice were removed from remaining fish following Day 30 and a further sea lice challenge took place on Day 37 (31 days post treatment) and lice counts and tissue samples taken from 10 fish per tank on Day 60 (53 days post treatment).
All adult lice were removed from remaining fish following Day 64 and 12 fish per tank were moved to 15×1 m diameter tanks. On Day 67 (61 days post-treatment) the fish in these 1 m tanks received a further sea lice challenge and on Day 90 (84 days post-treatment) lice counts and tissue samples were taken from 10 fish per tank.
On Day 76 (70 days post-treatment) the fish remaining in 2 m tanks received a further naïve sea lice challenge and on Day 99 (93 days post-treatment) lice counts and tissue samples were taken from 10 fish per tank.

[1] = tested on: naïve sea lice, Lepeophtheirus salmonis; test: Static 24 hour sea lice bioassay, naïve strain; settings: 24 hours exposure, 0.2% DMSO in seawater, about 10-12° C.
[2] = tested on: emamectin benzoate resistant sea lice, Lepeophtheirus salmonis; test: Static 24 hour sea lice bioassay, emamectin benzoate resistant strain; settings: 24 hours exposure, 0.2% DMSO in seawater, about 10-12° C.

Row | Molecule | prophylactic efficacy (naïve sea lice; 40 μg/kg/day oral in feed, Day 0 to Day 6, at 4.4 weeks) | prophylactic efficacy (naïve sea lice; 40 μg/kg/day oral in feed, Day 0 to Day 6, at 10 weeks) | prophylactic efficacy (naïve sea lice; 160 μg/kg/day oral in feed, Day 0 to Day 6, at 4.4 weeks) | prophylactic efficacy (naïve sea lice; 160 μg/kg/day oral in feed, Day 0 to Day 6, out to 10 weeks) | Adult females EC50 [1] | Adult males EC50 [1] | Adult females EC50 [2] | Adult males EC50 [2] | prophylactic efficacy (naïve sea lice; 50 μg/kg/day (commercially licensed value) oral in feed, at 4.4 weeks) | prophylactic efficacy (naïve sea lice; 50 μg/kg/day (commercially licensed value) oral in feed, out to 10 weeks)
1 | CO[C@H]1C[C@H](O[C@@H]2/C(C)=C/C[C@@H]3C[C@@H](C[C@]4(CC[C@H](C)[C@@H](C5CCCCC5)O4)O3)OC(=O)[C@@H]3C=C(C)/C(=N/O)[C@H]4OC/C(=C\C=C\[C@@H]2C)[C@]43O)O[C@@H](C)[C@@H]1O [Selamectin, selamectin] | 99.6% | 68.4% | 100% | 98.5% | 10.68 ppb | 3.21 ppb | 16.91 ppb | 6.95 ppb | – | –
2 | emamectin benzoate | – | – | – | – | 29 ppb | 112 ppb | 65 ppb | 202 ppb | 100% | 72.9%
